Data as given in PMC9919437 (Molecules, 2023).
Read-outs that look alike come from different tables or passages of the source.

How the values were obtained:
[1] = target: T1, BC2L-C-Nt (N-terminal lectin domain of BC2L-C) (Burkholderia cenocepacia, UniProt B4EH86); test: biochemical; format: binding
[2] = target: T1, BC2L-C-Nt (N-terminal lectin domain of BC2L-C); conditions: cited from earlier work
[3] = tested on: BC2L-C-Nt; test: STD-NMR competition experiment with α-methyl fucoside; format: binding, Burkholderia cenocepacia; conditions: 1 mol equiv α-methyl fucoside; for 4 aromatic protons only
Description: A great deal of additional information can be gained from STD competition assays, where a known binder is added to a protein–ligand mixture with the aim of displacing the ligand under study and confirm that they are both competing for the same binding site. […] The same competition experiment was performed for 4 in the presence of α-methyl fucoside. The reduction in STD intensity after the addition of the monosaccharide can be evaluated only for the aromatic protons, since the signals of galactose and methyl fucoside overlap in the region 3.8–3.6 ppm, and can be estimated around 60% (Table S2).
NMR experiments were performed on 400 MHz Bruker Avance III and 600 MHz Bruker Avance spectrometers at 298 K in deuterated or aqueous phosphate buffer at pH 7.4. When required, water suppression was achieved by excitation sculpting sequence from standard Bruker library. STD NMR experiments were performed using WATERGATE 3-9-19 pulse sequence for water suppression. […] Intensities of all STD effects (absolute STD) were calculated by division through integrals over the respective signals in STD reference spectra. The different signal intensities of the individual protons are best analyzed from the integral values in the reference and STD spectra, respectively. […]

T1 sequence (B4EH86 1-132 limits assumed): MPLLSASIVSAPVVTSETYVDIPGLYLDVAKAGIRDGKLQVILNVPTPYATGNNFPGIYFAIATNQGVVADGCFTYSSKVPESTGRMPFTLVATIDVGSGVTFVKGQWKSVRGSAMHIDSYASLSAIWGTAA

## CC(=O)N[C@H]1[C@H](O[C@H]2[C@@H](O)[C@@H](CO)OC(O)[C@@H]2O)O[C@H](CO)[C@@H](O)[C@@H]1O[C@@H]1O[C@H](CO)[C@H](O)[C@H](O)[C@H]1O[C@@H]1O[C@@H](C)[C@@H](O)[C@@H](O)[C@@H]1O (some centres unmarked) [H-type 1 tetrasaccharide, Fucα1-2Galβ1-3GlcNAcβ1-3Gal, reference compound]
[1]
  n (stoichiometry): 0.81
[1]; pH 7, read-out: KD
  Kd: 56 ± 4.5 µM

## C[C@@H]1O[C@H](C#Cc2ccc(C(C)(C)CN)cc2)[C@@H](O)[C@H](O)[C@@H]1O [compound 1]
[2]
  Kd: 290 µM

## C[C@@H]1O[C@H](NC(=O)c2ccc(-c3cccc(CN)c3)o2)[C@@H](O)[C@H](O)[C@@H]1O [compound 3]
[1]
  times less potent than the H-type 1 tetrasaccharide: 3
[3]
  decrease of STD signal of the ligand after addition of α-methyl fucoside: 20–26%

## NCc1cccc(-c2ccc(C(=O)NC3OC(CO)C(O)C(O)C3O)o2)c1 (centres unmarked) [compound 4]
[1]
  factor by which activity is lower than that of 3: 2.5
[1]; KD
  Kd: 390 µM
[3]
  decrease of STD signal of the ligand after addition of α-methyl fucoside: around 60%
